In US20150299182A1, “CRYSTALLINE FORMS OF (1S)-1-[5-(AMINO)-1,2,4-THIADIAZOL-3-YL]ETHANE-1,2-DIOL” (Array BioPharma Inc., priority 2012, published 2015):
“Also recorded” adds a separate entry of the source. Where a name gives a salt, the structure may show the parent alone.

Tests used:
[1] = Moisture balance / vapor sorption (hygroscopicity); assay type: physicochemical; conditions: for phase post vapor sorption experiment: based on XRPD results; for hygroscopicity: 5% to 95% relative humidity; for sorbed water retained: upon drying back down to ambient relative humidity; for relative humidity above which the material is hygroscopic: vapor sorption curve; for relative humidity by which the material fully re-hydrates: after drying to 5% relative humidity
Procedure: Moisture balance data was collected using a VTI SGA 100 or SGA CX symmetrical vapor sorption analyzer. Relative humidity was varied in increments or 5%, starting at 5% relative humidity thereby increasing to 95% relative humidity, and then undergoing a drying cycle back to 5% relative humidity. Equilibrium criteria was set at 0.01% weight change in 1 minute with a max equilibrium time of 180 minutes. Approximately 1-15 mg of sample was used.

[2] = Chemical and physical solid state stability on storage; conditions: for form change on storage: up to 4 months (phosphate salt up to 6 weeks)
Procedure: (§1) Chemical and physical stability was initiated on these forms and samples were stored at 60° C., 40° C./75% RH, 25° C./60% RH, and 5° C.

[3] = Storage at ambient conditions (form conversion); assay type: physicochemical; conditions: stored at ambient conditions
[4] = Exposure to 95% relative humidity chamber/jar, then XRPD; assay type: physicochemical
Procedure: The DSC curve indicates a broad endotherm around 150° C. (attributed to desolvation), and one sharp endotherm around 193° C. (attributed to a melt). The TG curve indicates a 5.0% weight loss up to 175° C.
The phosphate salt Form D material was generated from desolvating Form C, and a representative XRPD pattern is shown in FIG. 34. The sample appears to be crystalline with an irregular morphology. The DSC curve indicates a sharp endotherm around 193° C. (attributed to a melt). […] The material appears to retain this sorbed water upon drying down to 15% relative humidity; however, upon reaching 5% relative humidity the material losses all of its sorbed water and returns to dry weight.

[5] = 4 months
Procedure: as §1

[6] = vapor sorption, as high as 95% relative humidity

| Compound | stability of the phase as a function of relative humidity [1] | phase post vapor sorption experiment [1] | hygroscopicity ([1]; vapor sorption) | weight change [1, 6] | relative humidity above which the material is hygroscopic [1] | other results |
| --- | --- | --- | --- | --- | --- | --- |
| Cc1ncccc1Oc1cc(Sc2ccccn2)cnc1Nc1nc([C@H](O)CO)ns1 [phosphate salt Form B, (1S)-1-[5-({3-[(2-methylpyridin-3-yl)oxy]-5-(pyridin-2-ylsulfanyl)pyridin-2-yl}amino)-1,2,4-thiadiazol-3-yl]ethane-1,2-diol] | unstable as a function of ambient relative humidity | converted to Form A | slightly hygroscopic | 3.5% |  | weight loss upon drying ([1]; upon drying down to 5% relative humidity): 8.5% |
| Cc1ncccc1Oc1cc(Sc2ccccn2)cnc1Nc1nc([C@H](O)CO)ns1 [MSA salt Form C, (1S)-1-[5-({3-[(2-methylpyridin-3-yl)oxy]-5-(pyridin-2-ylsulfanyl)pyridin-2-yl}amino)-1,2,4-thiadiazol-3-yl]ethane-1,2-diol] |  | remained unchanged | hygroscopic | 18% | above 75 % relative humidity | sorbed water retained [1]: 2-3% |
| Cc1ncccc1Oc1cc(Sc2ccccn2)cnc1Nc1nc([C@H](O)CO)ns1 [HCl salt Form A, (1S)-1-[5-({3-[(2-methylpyridin-3-yl)oxy]-5-(pyridin-2-ylsulfanyl)pyridin-2-yl}amino)-1,2,4-thiadiazol-3-yl]ethane-1,2-diol] |  | converted to an amorphous phase | hygroscopic | 9% | above 55 % relative humidity |  |
| Cc1ncccc1Oc1cc(Sc2ccccn2)cnc1Nc1nc([C@H](O)CO)ns1 [Amorphous AMG151, (1S)-1-[5-({3-[(2-methylpyridin-3-yl)oxy]-5-(pyridin-2-ylsulfanyl)pyridin-2-yl}amino)-1,2,4-thiadiazol-3-yl]ethane-1,2-diol] |  | remained unchanged | hygroscopic |  |  |  |
| Cc1ncccc1Oc1cc(Sc2ccccn2)cnc1Nc1nc([C@H](O)CO)ns1 [HCl salt Form B, (1S)-1-[5-({3-[(2-methylpyridin-3-yl)oxy]-5-(pyridin-2-ylsulfanyl)pyridin-2-yl}amino)-1,2,4-thiadiazol-3-yl]ethane-1,2-diol] |  | converted to an amorphous phase | hygroscopic | 20% | above 75 % relative humidity |  |
| Cc1ncccc1Oc1cc(Sc2ccccn2)cnc1Nc1nc([C@H](O)CO)ns1 [Hydrate Form C, (1S)-1-[5-({3-[(2-methylpyridin-3-yl)oxy]-5-(pyridin-2-ylsulfanyl)pyridin-2-yl}amino)-1,2,4-thiadiazol-3-yl]ethane-1,2-diol] |  | remained unchanged | non hygroscopic; also recorded: non-hygroscopic | 0.25% |  | form change on storage ([2]; 40° C./75% RH): no form change; time after which conversion to Form A was found ([2]; 60° C.): 2 weeks; form change on storage ([2]; 60° C., listed as free base mono-hydrate): converted to Form A; wt change ([1]; from 5% to 95% relative humidity): < 0.5% |
| Cc1ncccc1Oc1cc(Sc2ccccn2)cnc1Nc1nc([C@H](O)CO)ns1 [phosphate salt Form A, (1S)-1-[5-({3-[(2-methylpyridin-3-yl)oxy]-5-(pyridin-2-ylsulfanyl)pyridin-2-yl}amino)-1,2,4-thiadiazol-3-yl]ethane-1,2-diol] |  | remained unchanged | non-hygroscopic | 0.8% |  | relative humidity by which the material fully re-hydrates [1]: ≤ 55 % relative humidity |
| Cc1ncccc1Oc1cc(Sc2ccccn2)cnc1Nc1nc([C@H](O)CO)ns1 [Form G, (1S)-1-[5-({3-[(2-methylpyridin-3-yl)oxy]-5-(pyridin-2-ylsulfanyl)pyridin-2-yl}amino)-1,2,4-thiadiazol-3-yl]ethane-1,2-diol] |  |  |  |  |  | form conversion on storage [3]: readily convert to Form F |
| Cc1ncccc1Oc1cc(Sc2ccccn2)cnc1Nc1nc([C@H](O)CO)ns1 [phosphate salt, (1S)-1-[5-({3-[(2-methylpyridin-3-yl)oxy]-5-(pyridin-2-ylsulfanyl)pyridin-2-yl}amino)-1,2,4-thiadiazol-3-yl]ethane-1,2-diol] |  |  |  |  |  | time found stable ([2]; 40° C./75% RH): up to 6 weeks; form change on storage ([2]; 40° C./75% RH): no form change; time found stable ([2]; 60° C.): up to 6 weeks; form change on storage ([2]; 60° C.): no form change |
| Cc1ncccc1Oc1cc(Sc2ccccn2)cnc1Nc1nc([C@H](O)CO)ns1 [Form A, (1S)-1-[5-({3-[(2-methylpyridin-3-yl)oxy]-5-(pyridin-2-ylsulfanyl)pyridin-2-yl}amino)-1,2,4-thiadiazol-3-yl]ethane-1,2-diol] |  | remained unchanged | non-hygroscopic |  |  |  |
| Cc1ncccc1Oc1cc(Sc2ccccn2)cnc1Nc1nc([C@H](O)CO)ns1 [fumarate co-crystal Form A, (1S)-1-[5-({3-[(2-methylpyridin-3-yl)oxy]-5-(pyridin-2-ylsulfanyl)pyridin-2-yl}amino)-1,2,4-thiadiazol-3-yl]ethane-1,2-diol] |  | remained unchanged | non-hygroscopic | 0.075% |  | form change on storage ([2]; 40° C./75% RH): no form change; form change on storage ([2]; 60° C.): no form change |
| Cc1ncccc1Oc1cc(Sc2ccccn2)cnc1Nc1nc([C@H](O)CO)ns1 [phosphate salt Form D, (1S)-1-[5-({3-[(2-methylpyridin-3-yl)oxy]-5-(pyridin-2-ylsulfanyl)pyridin-2-yl}amino)-1,2,4-thiadiazol-3-yl]ethane-1,2-diol] | unstable as a function of ambient relative humidity | remained unchanged | hygroscopic |  | above 55 % relative humidity | form after exposure to 95% relative humidity [4]: convert to Form E; weight change ([1]; around 75% relative humidity (appears to convert to a mono-hydrate)): 3.0% |
| Cc1ncccc1Oc1cc(Sc2ccccn2)cnc1Nc1nc([C@H](O)CO)ns1 [MSA salt Form B, (1S)-1-[5-({3-[(2-methylpyridin-3-yl)oxy]-5-(pyridin-2-ylsulfanyl)pyridin-2-yl}amino)-1,2,4-thiadiazol-3-yl]ethane-1,2-diol] | unstable as a function of relative humidity | converted to Form C | hygroscopic | 16.5% | above 65 % relative humidity | sorbed water retained [1]: 2-3% |
| Cc1ncccc1Oc1cc(Sc2ccccn2)cnc1Nc1nc([C@H](O)CO)ns1 [phosphate salt Form C, (1S)-1-[5-({3-[(2-methylpyridin-3-yl)oxy]-5-(pyridin-2-ylsulfanyl)pyridin-2-yl}amino)-1,2,4-thiadiazol-3-yl]ethane-1,2-diol] | unstable as a function of ambient relative humidity |  |  |  |  | form after exposure to 95% relative humidity [4]: converted to Form A |
| Cc1ncccc1Oc1cc(Sc2ccccn2)cnc1Nc1nc([C@H](O)CO)ns1 [Form F, (1S)-1-[5-({3-[(2-methylpyridin-3-yl)oxy]-5-(pyridin-2-ylsulfanyl)pyridin-2-yl}amino)-1,2,4-thiadiazol-3-yl]ethane-1,2-diol] |  | remained unchanged | non-hygroscopic |  |  | time found chemically stable [5]: up to 4 months; form change on storage ([2]; 40° C./75% RH): no form change; form change on storage ([2]; 60° C., listed as free base form F): no form change |
| Cc1ncccc1Oc1cc(Sc2ccccn2)cnc1Nc1nc([C@H](O)CO)ns1 [phosphate salt Form E, (1S)-1-[5-({3-[(2-methylpyridin-3-yl)oxy]-5-(pyridin-2-ylsulfanyl)pyridin-2-yl}amino)-1,2,4-thiadiazol-3-yl]ethane-1,2-diol] | unstable as a function of ambient relative humidity |  | slightly hygroscopic |  | Above 65 % relative humidity | relative humidity by which the material fully re-hydrates [1]: ≤ 65 % relative humidity |
